The record followed here is ChEMBL document CHEMBL4725225, “Exploratory studies on CA-15L, an anti-HIV active HIV-1 capsid fragment” (Bioorg Med Chem, 2020).

The subject of series [1] is Human immunodeficiency virus 1. As to the kind of experiment: Antiviral activity against Human immunodeficiency virus 1 NLAD-8 infected in human PM1 cells expressing CCR5 assessed as reduction in virus-induced cytopathogenicity measured after 5 days by MTT assay. The series is classed as functional, organism-based. Particulars: Human immunodeficiency virus 1, NLAD-8, PM1, 120 h.

The nature of series [2]: Cytotoxicity against Human immunodeficiency virus 1 NL4-3 infected in human MT4 cells assessed as reduction in cell viability measured after 5 days by MTT assay. Particulars: MT4 cells infected with HIV-1 NL4-3, time 5 day. The series is classed as cell-based.
Series [3] deals with Human immunodeficiency virus 1. Put plainly: Antiviral activity against Human immunodeficiency virus 1 NL4-3 infected in human MT4 cells assessed as reduction in virus-induced cytopathogenicity measured after 5 days by MTT assay. The series is classed as functional, organism-based. Particulars: Human immunodeficiency virus 1, NL4-3, MT4, 120 h. Background: Cytopathic effects are the visible damage that an infection or toxin causes in cultured cells.

Series [4] can be described thus: Cytotoxicity against Human immunodeficiency virus 1 NLAD8 infected in human PM1 cells expressing CCR5 assessed as cell viability measured after 5 days by MTT assay. It is filed as cell-based. Particulars: PM1 cells expressing CCR5 infected with HIV-1 NLAD8, time 5 day. (Tetrazolium assays rely on reduction of a dye to a coloured formazan, in cell work by metabolically active cells.)

With `CC[C@H](C)[C@H](NC(C)=O)C(=O)N[C@H](C(=O)N[C@@H](CCCNC(=N)N)C(=O)N[C@@H](CCSC)C(=O)N[C@@H](Cc1ccc(O)cc1)C(=O)N[C@@H](CO)C(=O)N1CCC[C@H]1C(=O)N[C@H](C(=O)N[C@@H](CO)C(=O)N[C@H](C(=O)N[C@@H](CC(C)C)C(=O)N[C@@H](CC(=O)O)C(=O)N[C@H](C(=O)N[C@@H](CCCNC(=N)N)C(=O)N[C@@H](CCC(N)=O)C(=O)NCC(=O)N[C@@H](CSCC(=O)N[C@@H](CCCNC(=N)N)C(=O)N[C@@H](CCCNC(=N)N)C(=O)N[C@@H](CCCNC(=N)N)C(=O)N[C@@H](CCCNC(=N)N)C(=O)N[C@@H](CCCNC(=N)N)C(=O)N[C@@H](CCCNC(=N)N)C(=O)N[C@@H](CCCNC(=N)N)C(=O)N[C@@H](CCCNC(=N)N)C(N)=O)C(N)=O)[C@@H](C)CC)[C@@H](C)CC)[C@@H](C)O)C(C)C`, the EC50 (commonly the midpoint of the concentration-response curve) in series [1] is 1.2 µM; in series [3] it was 4.6 µM. For the same compound, the figures for the CC50 at 120 h in series [2] and in series [4] were 9.3 µM and 18 µM, respectively.

For the compound `CC[C@H](C)[C@H](NC(C)=O)C(=O)N[C@H](C(=O)N[C@@H](CCCNC(=N)N)C(=O)N[C@@H](CCSC)C(=O)N[C@@H](Cc1ccc(O)cc1)C(=O)N[C@@H](CO)C(=O)N1CCC[C@H]1C(=O)N[C@H](C(=O)N[C@@H](COP(=O)(O)O)C(=O)N[C@H](C(=O)N[C@@H](CC(C)C)C(=O)N[C@@H](CC(=O)O)C(=O)N[C@H](C(=O)N[C@@H](CCCNC(=N)N)C(=O)N[C@@H](CCC(N)=O)C(=O)NCC(=O)N[C@@H](CSCC(=O)N[C@@H](CCCNC(=N)N)C(=O)N[C@@H](CCCNC(=N)N)C(=O)N[C@@H](CCCNC(=N)N)C(=O)N[C@@H](CCCNC(=N)N)C(=O)N[C@@H](CCCNC(=N)N)C(=O)N[C@@H](CCCNC(=N)N)C(=O)N[C@@H](CCCNC(=N)N)C(=O)N[C@@H](CCCNC(=N)N)C(N)=O)C(N)=O)[C@@H](C)CC)[C@@H](C)CC)[C@@H](C)O)C(C)C`, the EC50 is above 50 µM in series [1] and above 44 µM in series [3]. Besides, the CC50 (commonly the concentration giving 50% cytotoxicity) at 120 h in series [2] was 44 µM; in series [4] it was above 50 µM.

On to `c1cc(CN2CCCNCCNCCCNCC2)ccc1CN1CCCNCCNCCCNCC1` [PLERIXAFOR], for which the EC50 in series [1] was above 50 µM; in series [3], 0.035 µM. Further, the CC50 at 120 h in series [2] and in series [4] was above 50 µM each time.

Turning to `Cc1cn([C@H]2C[C@H](N=[N+]=[N-])[C@@H](CO)O2)c(=O)[nH]c1=O` [ZIDOVUDINE], the EC50 in series [1] came out at 0.3 µM; in series [3], 0.043 µM. For the same compound, the CC50 at 120 h in series [2] is above 50 µM; in series [4], above 100 µM.

For `CC[C@H](C)[C@H](NC(C)=O)C(=O)N[C@H](C(=O)N[C@@H](CCCNC(=N)N)C(=O)N[C@@H](CCSC)C(=O)N[C@@H](Cc1ccc(O)cc1)C(=O)N[C@@H](CO)C(=O)N1CCC[C@H]1C(=O)N[C@H](C(=O)N[C@@H](CCC(=O)O)C(=O)N[C@H](C(=O)N[C@@H](CC(C)C)C(=O)N[C@@H](CC(=O)O)C(=O)N[C@H](C(=O)N[C@@H](CCCNC(=N)N)C(=O)N[C@@H](CCC(N)=O)C(=O)NCC(=O)N[C@@H](CSCC(=O)N[C@@H](CCCNC(=N)N)C(=O)N[C@@H](CCCNC(=N)N)C(=O)N[C@@H](CCCNC(=N)N)C(=O)N[C@@H](CCCNC(=N)N)C(=O)N[C@@H](CCCNC(=N)N)C(=O)N[C@@H](CCCNC(=N)N)C(=O)N[C@@H](CCCNC(=N)N)C(=O)N[C@@H](CCCNC(=N)N)C(N)=O)C(N)=O)[C@@H](C)CC)[C@@H](C)CC)[C@@H](C)O)C(C)C`, the EC50 in series [1] is above 50 µM; in series [3] it was above 31 µM. In addition, the figures for the CC50 at 120 h in series [2] and in series [4] were 31 µM and above 50 µM, respectively.

With `COC[C@@H](c1ccc(C(F)(F)F)cc1)N1CCN(C2(C)CCN(C(=O)c3c(C)ncnc3C)CC2)C[C@@H]1C` [VICRIVIROC], the EC50 was 0.014 µM in series [1] and above 5 µM in series [3]. The CC50 at 120 h in series [2] and in series [4] was above 5 µM each time.

Consider `CC[C@H](C)[C@H](NC(C)=O)C(=O)N[C@H](C(=O)N[C@@H](CCCNC(=N)N)C(=O)N[C@@H](CCSC)C(=O)N[C@@H](Cc1ccc(O)cc1)C(=O)N[C@@H](CO)C(=O)N1CCC[C@H]1C(=O)N[C@H](C(=O)N[C@@H](CC(F)(F)P(=O)(O)O)C(=O)N[C@H](C(=O)N[C@@H](CC(C)C)C(=O)N[C@@H](CC(=O)O)C(=O)N[C@H](C(=O)N[C@@H](CCCNC(=N)N)C(=O)N[C@@H](CCC(N)=O)C(=O)NCC(=O)N[C@@H](CSCC(=O)N[C@@H](CCCNC(=N)N)C(=O)N[C@@H](CCCNC(=N)N)C(=O)N[C@@H](CCCNC(=N)N)C(=O)N[C@@H](CCCNC(=N)N)C(=O)N[C@@H](CCCNC(=N)N)C(=O)N[C@@H](CCCNC(=N)N)C(=O)N[C@@H](CCCNC(=N)N)C(=O)N[C@@H](CCCNC(=N)N)C(N)=O)C(N)=O)[C@@H](C)CC)[C@@H](C)CC)[C@@H](C)O)C(C)C`, for which the EC50 in series [1] and in series [3] was above 50 µM each time. Further, the CC50 at 120 h in series [2] and in series [4] was above 50 µM in each case.
